Paper PMC11125126, “Synthesis, Characterisation, and In Vitro Evaluation of Biocompatibility, Antibacterial and Antitumor Activity of Imidazolium Ionic Liquids” (Pharmaceutics, 2024)
Read-outs that look alike come from different tables or passages of the source.

Experiments:
Experiment in all cases: MIC/MBC by broth dilution, pure ILs
Assay type in all cases: cell-based
Conditions in all cases: 24 h; for MBC: read-out: MBC; for MIC: read-out: MIC
[1] = test system: Escherichia coli
Text: (§1) Within the Di3A (Dipartimento di Agricoltura, Alimentazione e Ambiente, University of Catania, Italy) microbial collection, two Gram-negative strains (Escherichia coli and Pseudomonas fluorescens) and one Gram-positive strain (Listeria monocytogenes) were studied in order to define the potential efficacy of ionic liquids in relation to the different structure of the bacterial cell wall.
(§2) For the pure ILs, the minimal inhibitory concentration (MIC) and minimal bactericidal concentration (MBC) were determined in Nutrient Broth (NB, Oxoid, Basingstoke, UK) medium by broth dilution method, according to the Clinical and Laboratory Standards Institute (CLSI).
(§3) All the bacterial strains were individually grown for 24 h at 35 or 27 °C for P. fluorescens, with shaking. After the incubation period, the cells were collected by centrifugation and re-suspended in sterile NB to obtain a stock culture of 10^9 CFU/mL.
(§4) Tubes containing 5 mL of NB with decreasing concentrations of ILs (1000, 500, 250, 125, 50, 25, 12.5, 5 and 0 µg/mL) were inoculated with each bacterial stock culture at a final concentration of 10^6 CFU/mL.
(§5) Tubes were incubated at 35 or 27 °C in an orbital shaker and evaluated for the viable count of E. coli, P. fluorescens, and L. monocytogenes after 24 h by spread-plating 100 µL of each suspension on Nutrient Agar (NA, Oxoid, Basingstoke, UK) incubated for 24–48 h at 35 or 27 °C.
(§6) In this study, MIC and MBC are expressed in both µg/mL and µM to make the comparison with the literature data easy. Each experiment was performed in triplicate.

[2] = test system: Listeria monocytogenes
Text: as §1, §2, §3, §4, §5, §6

[3] = test system: Pseudomonas fluorescens
Text: as §1, §2
All the bacterial strains were individually grown for 24 h at 35 or 27 °C for P. fluorescens, with shaking. After the incubation period, the cells were collected by centrifugation and re-suspended in sterile NB to obtain a stock culture of 10^9 CFU/mL. […]
as §5, §6

[4] = NI = no inhibition at IL maximum concentration used (1000 µM)

CCCCCCCCCCn1cc[n+](C)c1.F[B-](F)(F)F [C10mimBF4]
MBC ([1]; 10^6 CFU/mL): 155 µg/mL | MIC ([1]; 10^6 CFU/mL): 77.5 µg/mL | MBC [1, 4]: 500 µM | MIC [1, 4]: 250 µM | MBC ([2]; 10^6 CFU/mL): 155 µg/mL | MIC ([2]; 10^6 CFU/mL): 77.5 µg/mL | MBC [2, 4]: 500 µM | MIC [2, 4]: 250 µM | MBC ([3]; 10^6 CFU/mL): 155 µg/mL | MIC ([3]; 10^6 CFU/mL): 38.8 µg/mL | MBC [3, 4]: 500 µM | MIC [3, 4]: 125 µM
